From US12279521B2, “Materials for organic electroluminescent devices” (Merck Patent GmbH, priority 2019, dated 2025) come the findings set out here.

The structures appear in SMILES notation. Values after ≈ are worked out from the molar mass of the structure shown. Where two headings read alike, the source gives them in different places. A value given as a limit tells only on which side of the number the result lay.

The nature of series [1]: Baking of emission layer film at elevated temperature: state of film. Conditions: for State of film after baking at elevated temp.: EML mixture per Table 5. Format: physicochemical. From the text: The production of the corresponding OLED components is described below.
The emission layer is composed of at least one matrix material (host material) and an emitting dopant (emitter). In addition, it is possible to use mixtures of a plurality of matrix materials and co-dopants. Details given in such a form as TMM-A (92%):dopant (8%) mean here that the material TMM-A is present in the emission layer in a proportion by weight of 92% and dopant in a proportion by weight of 8%. The mixture for the emission layer is dissolved in toluene or optionally chlorobenzene. The typical solids content of such solutions is about 17 g/I when, as here, the layer thickness of 60 nm which is typical of a device is to be achieved by means of spin-coating. The layers are spun on in an inert gas atmosphere, argon in the present case, and baked for 10 minutes.

Series [2] is described as follows: Solubility in organic solvents via HPTLC (after 24 hours and 7 days). Type of series: physicochemical. As to conditions: for solubility at 24 h: 25 °C; for solubility at 24 h / solubility at 7 days: organic solvent or mixture, thermodynamic from solid; for solubility at 24 h / Solubility after 24 hours, Cyclohexylbenzene / Solubility after 24 hours, Mesitylene / Solubility after 24 hours, Tetralin / Solubility after 24 hours, Toluene: room temperature; for solubility at 7 days / Solubility after 7 days, Cyclohexylbenzene / Solubility after 7 days, Mesitylene / Solubility after 7 days, Tetralin / Solubility after 7 days, Toluene: 7 days storage at room temperature. How it is done: One way of processing the materials of the invention is from solution. In addition, it is a feature of materials of the invention that their […] stability is elevated, as apparent from the long-term solubility data in Table 1.
Method of Determining Solubility Via HPTLC
Sample preparation: The material is weighed out in two 25 mg portions (W1, W2), 0.5 ml of solvent is added, and the mixture is shaken at 60° C. for 60 minutes and then at 25° C. and 600 rpm for 24 h. When the solution is clear, more solid material is added until a saturated solution is formed. After being cooled to room temperature, the samples are filtered through a syringe filter (0.2 μm). The solutions are stored in glass vials at room temperature for 7 days, and the solubility is determined by HPTLC on days 1 and 7. For this purpose, the filtered solutions are diluted.
Calibration: Making up a standard solution: about 6 mg of substance are dissolved in 20 ml of 2-methyl-THF. If it is not possible to dissolve the material under these conditions, the concentration can be reduced. The stock solution is diluted for the calibration (standardization).
Chromatographic conditions (HPTLC): plate: HPTLC RP 18 F254, 10×20 cm eluent: methanol/2-methyl-THF 70/30 (V/V)
HPTLC measurement: The HPTLC plate is scanned by a TLC scanner, peaks are integrated and a calibration function is determined.

[3] abbreviates: Ref. temp. 150, elevated temp. 180.
Setting [4] is: Ref. temp. 160, elevated temp. 170.
[5] abbreviates: Ref. temp. 160, elevated temp. 180.
The mark [6] stands for this setting: cyclohexylbenzene, read-out: Solubility after 24 hours, Cyclohexylbenzene.
The mark [7] stands for this setting: mesitylene, read-out: Solubility after 24 hours, Mesitylene.
Setting [8] is: tetralin, read-out: Solubility after 24 hours, Tetralin.
Where [9] appears, read: toluene, read-out: Solubility after 24 hours, Toluene.
[10] abbreviates: cyclohexylbenzene, read-out: Solubility after 7 days, Cyclohexylbenzene.
[11] abbreviates: mesitylene, read-out: Solubility after 7 days, Mesitylene.
The mark [12] stands for this setting: tetralin, read-out: Solubility after 7 days, Tetralin.
Where [13] appears, read: toluene, read-out: Solubility after 7 days, Toluene.
The mark [14] stands for this setting: Ref. temp. 150, elevated temp. 170.

As to `c1ccc(-c2cccc(-c3cc(-c4cccc(-c5ccccc5)c4)cc(C4(c5cc(-c6cccc(-c7ccccc7)c6)cc(-c6cccc(-c7ccccc7)c6)c5)c5ccccc5-c5ccccc54)c3)c2)cc1` [Compound B-1, reference compound], the “State of film after baking at elevated temp.” value (shortened to “State of film after baking”) in series [1] (setting [3]) is “cloudy”; in series [1] (setting [4]), “slightly cloudy”; in series [1] (setting [5]), “cloudy”. The solubility at 24 h was below 20 mg/mL in series [2] (setting [6]), above 50 mg/mL in series [2] (setting [7]), above 50 mg/mL in series [2] (setting [8]) and above 50 mg/mL in series [2] (setting [9]). The solubility at 7 days is below 20 mg/mL in series [2] (setting [10]), below 40 mg/mL in series [2] (setting [11]), above 50 mg/mL in series [2] (setting [12]) and above 50 mg/mL in series [2] (setting [13]).
Turning to `c1ccc(-c2cc(-c3ccccc3)cc(-c3cccc(-c4cccc(C5(c6cccc(-c7cccc(-c8cc(-c9ccccc9)cc(-c9ccccc9)c8)c7)c6)c6ccccc6-c6ccccc65)c4)c3)c2)cc1` [Compound B-2, reference compound], the “State of film after baking” value in series [1] (setting [5]) is given as “slightly cloudy”. The solubility at 24 h in series [2] (setting [6]) was above 50 mg/mL; in series [2] (setting [7]) it was below 1 mg/mL; in series [2] (setting [8]), above 50 mg/mL; in series [2] (setting [9]) it was below 1 mg/mL. The solubility at 7 days in series [2] (setting [10]) is below 1 mg/mL; in series [2] (setting [11]), below 1 mg/mL; in series [2] (setting [12]) it was below 20 mg/mL; in series [2] (setting [13]), below 1 mg/mL.
With `c1ccc(-c2cccc(-c3cc(-c4cccc(-c5ccccc5)c4)cc(C4(c5cc(-c6cccc(-c7ccccc7)c6)cc(-c6cccc(-c7ccccc7)c6)c5)c5ccccc5-c5ccc(-c6ccccc6)cc54)c3)c2)cc1` [Compound B-3, reference compound], the solubility at 24 h in series [2] (setting [6]) was above 50 mg/mL; in series [2] (setting [7]), below 50 mg/mL; in series [2] (setting [8]), below 50 mg/mL; in series [2] (setting [9]) it was above 50 mg/mL. Moreover, the solubility at 7 days was above 50 mg/mL in series [2] (setting [10]), below 40 mg/mL in series [2] (setting [11]), below 50 mg/mL in series [2] (setting [12]) and above 50 mg/mL in series [2] (setting [13]).
Consider `c1ccc(-c2cccc(-c3cc(-c4ccccc4)cc(-c4cccc(C5(c6cccc(-c7cc(-c8ccccc8)cc(-c8cccc(-c9ccccc9)c8)c7)c6)c6ccccc6-c6ccccc65)c4)c3)c2)cc1` [Compound B-4, reference compound], for which the “State of film after baking” value in series [1] (setting [3]) is recorded as “slightly cloudy”.
On to `c1ccc(-c2cc(-c3ccccc3)cc(-c3cccc(-c4cccc(C5(c6cccc(-c7cccc(-c8cc(-c9ccccc9)cc(-c9ccccc9)c8)c7)c6)c6ccccc6-c6c(-c7ccccc7)cccc65)c4)c3)c2)cc1` [Compound M-0002], for which the “State of film after baking” value in series [1] (setting [3]) is recorded as “clear”. Moreover, the “State of film after baking” value in series [1] (setting [5]) is “clear”. Also, the “baking of the layer at higher temperature, cloudiness, compared with B-2” value in series [1] (versus B-2) is on record as “can be baked at higher temperature without cloudiness”. Besides, in series [2] (cyclohexylbenzene), the “Solubility after 24 hours, Cyclohexylbenzene” value is below 1 g/L and the “Solubility after 7 days, Cyclohexylbenzene” value was below 1 g/L. In series [2] (mesitylene), the “Solubility after 24 hours, Mesitylene” value is above 50 g/L and the “Solubility after 7 days, Mesitylene” value was determined as 50 g/L (≈ 49.8 mM). Further, in series [2] (tetralin), the “Solubility after 24 hours, Tetralin” value is above 50 g/L and the “Solubility after 7 days, Tetralin” value was above 50 g/L. Besides, in series [2] (toluene), the “Solubility after 24 hours, Toluene” value was above 50 g/L and the “Solubility after 7 days, Toluene” value is above 50 g/L.
Turning to `c1ccc(-c2cccc(-c3cc(-c4cccc(-c5ccccc5)c4)cc(C4(c5cc(-c6cccc(-c7ccccc7)c6)cc(-c6cccc(-c7ccccc7)c6)c5)c5ccccc5-c5c(-c6ccccc6)cccc54)c3)c2)cc1` [Compound M-0005], the “State of film after baking” value in series [1] (setting [14]) is reported as “clear”. Also, in series [1] (setting [4]), the “State of film after baking” value was “clear”. In series [2] (cyclohexylbenzene), the “Solubility after 24 hours, Cyclohexylbenzene” value was above 50 g/L and the “Solubility after 7 days, Cyclohexylbenzene” value was above 50 g/L. The “solubility in cyclohexylbenzene compared with B-1” value in series [2] (cyclohexylbenzene, versus B-1) is “significantly better”. For the same compound, in series [2] (mesitylene), the “Solubility after 24 hours, Mesitylene” value is above 50 g/L and the “Solubility after 7 days, Mesitylene” value was above 50 g/L. In addition, the “long-term stability of the solution in mesitylene compared with B-1” value in series [2] (mesitylene, versus B-1) is given as “significantly better”. Also, in series [2] (tetralin), the “Solubility after 24 hours, Tetralin” value is above 50 g/L and the “Solubility after 7 days, Tetralin” value is below 50 g/L. Moreover, in series [2] (toluene), the “Solubility after 24 hours, Toluene” value was above 50 g/L and the “Solubility after 7 days, Toluene” value was above 50 g/L.
Regarding `c1ccc(-c2cccc(-c3cc(-c4cccc(-c5ccccc5)c4)cc(C4(c5cc(-c6cccc(-c7ccccc7)c6)cc(-c6cccc(-c7ccccc7)c6)c5)c5ccccc5-c5c(-c6ccccc6-c6ccccc6)cccc54)c3)c2)cc1` [Compound M-0043], in series [1] (setting [3]), the “State of film after baking” value is reported as “clear”. Besides, in series [2] (cyclohexylbenzene), the “Solubility after 24 hours, Cyclohexylbenzene” value was below 50 g/L and the “Solubility after 7 days, Cyclohexylbenzene” value was below 50 g/L. Further, in series [2] (mesitylene), the “Solubility after 24 hours, Mesitylene” value was below 50 g/L and the “Solubility after 7 days, Mesitylene” value was below 50 g/L. In series [2] (tetralin), the “Solubility after 24 hours, Tetralin” value was above 50 g/L and the “Solubility after 7 days, Tetralin” value is above 50 g/L. Besides, in series [2] (toluene), the “Solubility after 24 hours, Toluene” value was below 50 g/L and the “Solubility after 7 days, Toluene” value was below 50 g/L.
In the case of `Cc1cc(C)c(-c2cccc3c2-c2ccccc2C3(c2cc(-c3cc(-c4ccc(C(C)(C)C)cc4)cc(-c4ccc(C(C)(C)C)cc4)c3)cc(-c3cc(-c4ccc(C(C)(C)C)cc4)cc(-c4ccc(C(C)(C)C)cc4)c3)c2)c2cc(-c3cc(-c4ccc(C(C)(C)C)cc4)cc(-c4ccc(C(C)(C)C)cc4)c3)cc(-c3cc(-c4ccc(C(C)(C)C)cc4)cc(-c4ccc(C(C)(C)C)cc4)c3)c2)c(C)c1` [Compound M-0086], the “State of film after baking” value in series [1] (setting [3]) is “clear”. Further, the solubility at 24 h in series [2] (setting [6]), in series [2] (setting [7]), in series [2] (setting [8]) and in series [2] (setting [9]) was above 50 mg/mL each time. Further, the solubility at 7 days in series [2] (setting [10]), in series [2] (setting [11]), in series [2] (setting [12]) and in series [2] (setting [13]) was above 50 mg/mL each time.
Consider `c1ccc(-c2cc(-c3ccccc3)cc(-c3cccc(-c4cccc(C5(c6cccc(-c7cccc(-c8cc(-c9ccccc9)cc(-c9ccccc9)c8)c7)c6)c6ccccc6-c6c(-c7cccc(-c8ccccc8)c7)cccc65)c4)c3)c2)cc1` [Compound M-0162], for which the “State of film after baking” value in series [1] (setting [3]) is listed as “clear”. Also, the solubility at 24 h was below 50 mg/mL in series [2] (setting [6]), above 50 mg/mL in series [2] (setting [7]), above 50 mg/mL in series [2] (setting [8]) and above 50 mg/mL in series [2] (setting [9]). Besides, the solubility at 7 days in series [2] (setting [10]) is below 50 mg/mL; in series [2] (setting [11]), above 50 mg/mL; in series [2] (setting [12]), above 50 mg/mL; in series [2] (setting [13]), above 50 mg/mL.
For `Cc1ccc2c(c1)-c1c(-c3cccc(-c4ccccc4)c3)cccc1C2(c1cccc(-c2cccc3c2-c2ccccc2C3(C)C)c1)c1cccc(-c2cccc3c2-c2ccccc2C3(C)C)c1` [Compound M-0172], in series [1] (setting [14]), the “State of film after baking” value is given as “clear”. For the same compound, in series [2] (cyclohexylbenzene), the “Solubility after 24 hours, Cyclohexylbenzene” value was below 40 g/L and the “Solubility after 7 days, Cyclohexylbenzene” value was below 40 g/L. Moreover, in series [2] (mesitylene), the “Solubility after 24 hours, Mesitylene” value is below 30 g/L and the “Solubility after 7 days, Mesitylene” value was below 30 g/L. In series [2] (tetralin), the “Solubility after 24 hours, Tetralin” value was below 40 g/L and the “Solubility after 7 days, Tetralin” value was below 40 g/L. In series [2] (toluene), the “Solubility after 24 hours, Toluene” value is below 30 g/L and the “Solubility after 7 days, Toluene” value is below 30 g/L.
